For the experiment, the target named is Glutaminyl-peptide cyclotransferase like (QPCTL) protein (Homo sapiens, UniProt Q9NXS2). The experiment is described as follows: Glutaminyl-peptide cyclotransferase like (QPCTL) protein inhibition assay (Gln-AMC substrate, pGAPase coupled). It counts as biochemical. As to conditions: 50 mM MES pH 7.0, 10 μM ZnCl2, 0.2 U/mL pGAPase, Gln-AMC at its Km, 30° C. As for the experimental part: Example B-1: Glutaminyl-Peptide Cyclotransferase Like (OPCTL) Protein Inhibition Assay
Sequence of Glutaminyl-peptide cyclotransferase like (QPCTL) protein (Q9NXS2 whole entry, species assumed): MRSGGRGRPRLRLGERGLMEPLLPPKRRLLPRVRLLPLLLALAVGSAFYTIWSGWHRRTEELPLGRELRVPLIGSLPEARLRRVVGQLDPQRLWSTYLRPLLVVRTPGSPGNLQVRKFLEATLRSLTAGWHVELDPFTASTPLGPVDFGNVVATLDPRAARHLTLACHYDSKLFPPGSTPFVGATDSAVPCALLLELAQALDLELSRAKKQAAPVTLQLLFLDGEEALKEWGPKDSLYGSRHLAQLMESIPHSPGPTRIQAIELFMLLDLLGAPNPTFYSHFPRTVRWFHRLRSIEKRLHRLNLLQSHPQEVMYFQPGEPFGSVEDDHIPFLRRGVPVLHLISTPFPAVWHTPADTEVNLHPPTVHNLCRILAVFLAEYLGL
Glutaminyl-peptide cyclotransferase like (QPCTL) protein activity was determined using L-glutamine-7-amido-4-methylcoumarin (Gln-AMC, Santa Cruz Biotechnology) as a substrate. A second enzyme, pyroglutamyl aminopeptidase (pGAPase, Qiagen), was included in the assay to release the AMC fluorophore following cyclization; appropriate controls were run to ensure that inhibitors were not inhibiting the auxiliary enzyme. Inhibitors were added at various concentrations to buffer (final concentrations: 50 mM MES pH 7.0, 10 μM ZnCl2, 0.2 U/mL pGAPase, Gln-AMC at its Km) and the reaction initiated by the addition of QPCTL. Reactions became linear after a 10-minute equilibration period at 30° C. (to accumulate pGlu-AMC intermediate), and were monitored for an additional 10 minutes.
Table A provides QPCTL inhibitory activity of illustrative compounds, where A means IC50 is <1 μM; B means IC50 is between 1 to 10 μM; C means IC50 is between 10 to 50 PM; D means IC50 is >50 PM.

Turning to “1-(1-(6′-chloro-[3,3′-bipyridin]-2-yl)piperidin-4-yl)-1H-1,2,3-triazol-4-amine [Compound 3]”, the IC50 is below 1000 nM.
The same measure, in the same setting: the same measure for `Nc1nnc(C2CCN(c3ncccc3-c3ccc(F)nc3)CC2)[nH]1` [Compound 1, 5-(1-(6′-fluoro-[3,3′-bipyridin]-2-yl)piperidin-4-yl)-4H-1,2,4-triazol-3-amine]: below 1000 nM.
Still for that read-out and setting: the same measure for `Nc1nnc(C2CCN(c3ncccc3-c3ccc(F)nc3)CC2)o1` [Compound 2, 5-(1-(6′-fluoro-[3,3′-bipyridin]-2-yl)piperidin-4-yl)-1,3,4-oxadiazol-2-amine]: below 1000 nM; for `Cc1ccc(-c2ccc(F)nc2)c(N2CCC(c3nnc(N)n3C)CC2)n1` [Compound 4, 5-(1-(6′-fluoro-6-methyl-[3,3′-bipyridin]-2-yl)piperidin-4-yl)-4-methyl-4H-1,2,4-triazol-3-amine]: below 1000 nM.
Turning to `Cn1c(N)nnc1C1CCN(c2nc(F)ccc2-c2ccc(F)nc2)CC1` [Compound 5, 5-(1-(6,6′-difluoro-[3,3′-bipyridin]-2-yl)piperidin-4-yl)-4-methyl-4H-1,2,4-triazol-3-amine], the IC50 was below 1000 nM.
`Cn1c(N)nnc1C1CCN(c2ncccc2-c2ccc(F)nc2)CC1` [Compound 6, 5-(1-(6′-fluoro-[3,3′-bipyridin]-2-yl)piperidin-4-yl)-4-methyl-4H-1,2,4-triazol-3-amine]: the IC50 was below 1000 nM.
On the same count and under the same terms, in the case of `CNc1nnc(C2CCN(c3ncccc3-c3ccc(F)nc3)CC2)[nH]1` [Compound 7, 5-(1-(6′-fluoro-[3,3′-bipyridin]-2-yl)piperidin-4-yl)-N-methyl-4H-1,2,4-triazol-3-amine] it was below 1000 nM.
As for `Cc1c(N)nnn1C1CCN(c2ncccc2-c2ccc(F)nc2)CC1` [Compound 10, 1-(1-(6′-fluoro-[3,3′-bipyridin]-2-yl)piperidin-4-yl)-5-methyl-1H-1,2,3-triazol-4-amine], the IC50 was below 1000 nM.
Consider `Fc1ccc(-c2cccnc2N2CC=C(c3cccn4cnnc34)CC2)cc1F` [Compound 11, 8-(3′-(3,4-difluorophenyl)-3,6-dihydro-2H-[1,2′-bipyridin]-4-yl)-[1,2,4]triazolo[4,3-a]pyridine], for which the “QPCTL IC50” value is given as “C (C means IC50 is between 10 to 50 PM)”.
The compound `N#Cc1ccc(-c2cccnc2N2CC=C(c3cccn4cnnc34)CC2)cn1` [Compound 12, 4-([1,2,4]triazolo[4,3-a]pyridin-8-yl)-3,6-dihydro-2H-[1,2′:3′,3″-terpyridine]-6″-carbonitrile] had an IC50 of 1000 to 10000 nM.
On to `Nc1ccc(-c2cccnc2N2CC=C(c3cccn4cnnc34)CC2)cn1` [Compound 13, 4-([1,2,4]triazolo[4,3-a]pyridin-8-yl)-3,6-dihydro-2H-[1,2′:3′,3″-terpyridin]-6″-amine], for which the IC50 was in the range of 1000 to 10000 nM.
The same measure, in the same setting: the same measure for `COc1ccc(-c2cccnc2N2CC=C(c3cccn4cnnc34)CC2)cn1` [Compound 14, 8-(6″-methoxy-3,6-dihydro-2H-[1,2′:3′,3″-terpyridin]-4-yl)-[1,2,4]triazolo[4,3-a]pyridine]: 1000 to 10000 nM.
On to `Nc1nnc2c(C3=CCN(c4ncccc4-c4ccc(F)nc4)CC3)cccn12` [Compound 15, 8-(6″-fluoro-3,6-dihydro-2H-[1,2′:3′,3″-terpyridin]-4-yl)-[1,2,4]triazolo[4,3-a]pyridin-3-amine], for which the IC50 was below 1000 nM.
For the compound `C1=C(c2cccn3cnnc23)CCN(c2ncccc2-c2cncnc2)C1` [Compound 16, 8-(3′-(pyrimidin-5-yl)-3,6-dihydro-2H-[1,2′-bipyridin]-4-yl)-[1,2,4]triazolo[4,3-a]pyridine], the “QPCTL IC50” value is recorded as “C (C means IC50 is between 10 to 50 PM)”.
In the case of `Nc1nnc2c(C3CCN(c4ncccc4-c4ccc(F)nc4)CC3)cccn12` [Compound 17, 8-(1-(6′-fluoro-[3,3′-bipyridin]-2-yl)piperidin-4-yl)-[1,2,4]triazolo[4,3-a]pyridin-3-amine], the IC50 was below 1000 nM.
On to `Fc1ccc(-c2cccnc2N2CC=C(c3cccn4cnnc34)CC2)cn1` [Compound 18, 8-(6″-fluoro-3,6-dihydro-2H-[1,2′:3′,3″-terpyridin]-4-yl)-[1,2,4]triazolo[4,3-a]pyridine], for which the IC50 lay within 1000 to 10000 nM.
In the case of `COCCOc1ccc(-c2cccnc2N2CC=C(c3cccn4cnnc34)CC2)cn1` [Compound 19, 8-(6″-(2-methoxyethoxy)-3,6-dihydro-2H-[1,2′:3′,3″-terpyridin]-4-yl)-[1,2,4]triazolo[4,3-a]pyridine], the IC50 fell in the range of 1000 to 10000 nM.
Compound `Fc1ccc(-c2cccnc2N2CC=C(c3cccn4cncc34)CC2)cn1` [Compound 20, 8-(6″-fluoro-3,6-dihydro-2H-[1,2′:3′,3″-terpyridin]-4-yl)imidazo[1,5-a]pyridine] registered a 50% inhibitory concentration (IC50) of 1000 to 10000 nM.
For the compound `Fc1ccc(CN2CC=C(c3cccn4cnnc34)CC2)cn1` [Compound 21, 8-(1-((6-fluoropyridin-3-yl)methyl)-1,2,3,6-tetrahydropyridin-4-yl)-[1,2,4]triazolo[4,3-a]pyridine], the “QPCTL IC50” value is given as “D (D means IC50 is >50 PM)”.
On the same count and under the same terms, in the case of `C1=C(c2cccn3cnnc23)CCN(c2ccccn2)C1` [Compound 22, 8-(3,6-dihydro-2H-[1,2′-bipyridin]-4-yl)-[1,2,4]triazolo[4,3-a]pyridine] it was “C (C means IC50 is between 10 to 50 PM)”; in that of `COc1ccc(C2=CCCN(CC#Cc3cccn4cnnc34)C2)cc1OC` [Compound 23, 8-(3-(5-(3,4-dimethoxyphenyl)-3,6-dihydropyridin-1(2H)-yl)prop-1-yn-1-yl)-[1,2,4]triazolo[4,3-a]pyridine], “C (C means IC50 is between 10 to 50 PM)”.
Turning to `C1=C(c2cccn3cncc23)CCN(c2ccccn2)C1` [Compound 24, 8-(3,6-dihydro-2H-[1,2′-bipyridin]-4-yl)imidazo[1,5-a]pyridine], the IC50 fell in the range of 1000 to 10000 nM.
For `COc1ccc(CN2CCC=C(c3cccn4cnnc34)C2)cc1OC` [Compound 25, 8-(1-(3,4-dimethoxybenzyl)-1,2,5,6-tetrahydropyridin-3-yl)-[1,2,4]triazolo[4,3-a]pyridine], the “QPCTL IC50” value was “D (D means IC50 is >50 PM)”.
Take `OCCn1cc(C2CN(c3ccccn3)CC=C2c2cccn3cnnc23)cn1` (stereo not shown) [Compound 26, 2-(4-(4-([1,2,4]triazolo[4,3-a]pyridin-8-yl)-3,6-dihydro-2H-[1,2′-bipyridin]-3-yl)-1H-pyrazol-1-yl)ethan-1-ol]: the IC50 lay in the range of 1000 to 10000 nM.
For `c1ccc(N2CCC(C3CCCn4cnnc43)CC2)nc1` (stereo not shown) [Compound 27, 8-(1-(pyridin-2-yl)piperidin-4-yl)-5,6,7,8-tetrahydro-[1,2,4]triazolo[4,3-a]pyridine], the “QPCTL IC50” value is recorded as “C (C means IC50 is between 10 to 50 PM)”.

A word on the IC50: it is the concentration at which inhibition is half-maximal. Read a high IC50 as weaker potency in that assay.

Values taken from US20230382891A1, “GLUTAMINYL-PEPTIDE CYCLOTRANSFERASE LIKE (QPCTL) PROTEIN INHIBITORS AND USES THEREOF” (Blacksmith Medicines, Inc., priority 2020, published 2023).
